Values joined by “and” are separate entries in the source; they are usually repeats but may differ in a detail not shown here. Identical values can stand only once. “Also recorded” adds a separate entry of the source.
Key:
[1] = Pharmacokinetics after intravenous injection in rats; assay type: in vivo
[2] = system: acute global cerebral ischemia in rats; experiment: Acute global cerebral ischemia in rats, volume of cerebral infarction (nuclear magnetic resonance); assay type: in vivo
Description: 2.7 The Protective Effect of BZP on Acute Global Cerebral Ischemia in Rats: […]

[3] = system: salt-sensitive rats; experiment: Salt-sensitive rats; assay type: in vivo
[4] = system: SYN, GAP-43, BDNF, GFAP, NOGO-A in the ischemic penumbra area; experiment: Neuroplasticity after focal cerebral ischemia-reperfusion injury; assay type: in vivo, rats
Description: 2.4 Effect of BZP on Neuroplasticity after Focal Cerebral Ischemia-Reperfusion Injury in Rats: […]

[5] = system: platelet aggregation; experiment: Ex vivo platelet aggregation; assay type: cell-based
[6] = Pharmacokinetics after intravenous injection in dogs; assay type: in vivo
[7] = Tissue distribution, metabolism and excretion in animals; assay type: in vivo
Description: BNBP-OH is the main metabolite of BNBP (via NADPH coenzyme/CYP450).

[8] = system: TNF-α, IL-6, IL-1β, NF-κB, COX-2, ICAM-1; experiment: Inflammatory response induced by focal cerebral ischemia-reperfusion injury, immunohistochemical staining; assay type: in vivo, rats
Description: 2.2 Effects of BZP on Inflammatory Response Induced by Focal Cerebral Ischemia-Reperfusion Injury in Rats:
The results of TNF-α, IL-6, IL-1β, NF-κB, Cox-2, ICAM-1 immunohistochemical staining
BZP can inhibit the cellular inflammatory response induced by cerebral ischemia-reperfusion injury, manifested as inhibiting the expression of TNF-α-IL-6-IL-1β-NF-κB-COX-2-ICAM-1 loop.

[9] = BZP1702 Phase I multiple doses pharmacokinetics in healthy subjects; settings: for half-life: both, human, plasma
Description: Analysis population: same as BZP1601 trial. The study contained 4 BZP groups (50 mg, 100 mg, 200 mg respectively) and a placebo group. Each group enrolled 10, 10, 10 and 6 subjects, respectively, a total of 36 subjects. 1 subject in the 50 mg group took a drug two days before the administration, and the paracetamol, caffeine, artificial cow-bezoar and chlorphenamine maleate may affect the metabolism of the drug, and the subject dropped out of the group after collecting a 24-hour blood sample on the second day of administration, so the pharmacokinetic parameters could not be fully calculated, and thus this subject was not included in the pharmacokinetic analysis data set, and the other 29 subjects who were given BZP were all included in the pharmacokinetic analysis data set.
The blood samples were collected at 0 minutes, 20 minutes, 40 minutes, minutes (end of infusion), 1.25 hours, 1.5 hours, 2 hours, 2.5 hours, 3 hours, 4 hours, 6 hours, 8 hours, 12 hours, 16 hours, 24 hours, 36 hours, and 48 hours after administration in BZP1601 trial, while in the BZP1702 trial, on the first day of administration, the blood samples were collected only by 24 hours after administration.

[10] = Long-term toxicity test, 13 consecutive weeks, dogs; assay type: in vivo
Description: These gradually returned to normal within 1 hour. […] The nervous system and respiratory system reactions in the long-term toxicity test were transient reactions, and the slight anemia and damage to the liver also recovered within the observation period.

[11] = system: platelet aggregation; experiment: Rat in vivo platelet aggregation
[12] = system: cardiovascular system; experiment: Safety pharmacology, cardiovascular system; assay type: in vivo, dogs
Description: These changes all recovered within 0.5 hours after administration. The dose range of […] BZP has no effect on the II-lead ECG.

[13] = system: experimental thrombosis; experiment: Experimental thrombosis in rats; assay type: in vivo; settings: for results of experimental thrombosis: significantly lower than model group (P<0.01)
[14] = in vivo; settings: for recovery of toxic reactions in the nervous system and respiratory system: acute toxicity test; for MTD: in vivo, single intravenous injection
Description: In the acute toxicity test, a single intravenous injection of BZP was given to rats and dogs, and the MTDs were 200 mg/kg and 300 mg/kg.

[15] = system: respiratory system; experiment: Safety pharmacology, respiratory system; assay type: in vivo, rats; settings: single intravenous injection 25-100 mg/kg
Description: In terms of the respiratory system, a single intravenous injection of BZP 25-100 mg/kg had no effect on rats.

[16] = system: neurobehavior; experiment: Safety pharmacology, neurobehavior; assay type: in vivo, rats
Description: These changes all recovered within 4 hours after drug withdrawal. The effective dose (12 mg/kg) of BZP to protect against ischemia-reperfusion injury in rats was lower than the dose (50 mg/kg) that caused neurological effects in rats.

[17] = system: global cerebral ischemia-reperfusion model in rats; experiment: Global cerebral ischemia-reperfusion injury in rats; assay type: in vivo
Description: BZP has a protective effect on cerebral ischemia-reperfusion injury and is effective when administered within 4 hours after ischemia, especially within 2 hours after ischemia.
2.5 The Protective Effect of BZP on Global Cerebral Ischemia-Reperfusion Injury in Rats:
BZP has a protective effect on acute global cerebral ischemia in rats, and its mechanism is to inhibit the inflammatory response and apoptosis of cells.

[18] = 7 consecutive days, 6.0 mg/kg, rats
[19] = 12 mg/kg of BZP vs 9.6 mg/kg NBP-K and 10.5 mg/kg Br-NBP
[20] = low, middle and high dose, compared with the model group
[21] = compared with the model group (P<0.05)

CCCCC(O)c1ccc(Br)cc1C(=O)[O-].[Na+] (stereo not drawn) [BZP, sodium 5-bromo-2-(α-hydroxypentyl)benzoate]
AUC0-t after the last administration compared with the first [1, 18]: significantly higher than that of the first time | Cmax, single dose compared with multiple doses [1, 18]: no difference | accumulation in the body ([1]; intravenous, 7 consecutive days, 6.0 mg/kg, rats): did not accumulate | AUC0-t, female compared with male rats ([1]; single intravenous injection): significantly higher than that in male rats | Cmax and AUC0-t versus dose ([1]; single intravenous injection of BZP 0.75-12.0 mg/kg, rats): basically conformed to linear kinetics | reduction of volume of cerebral infarction compared with Br-NBP group and NBP-K group ([2]; 12 and 24 mg/kg of BZP (P<0.01)): better than those in Br-NBP group and NBP-K group | volume of cerebral infarction ([2]; BZP 0.75, 3, 12 and 24 mg/kg, Br-NBP 10.5 mg/kg, NBP-K 9.6 mg/kg, vs model group): significantly reduce | blood pressure of salt-sensitive rats ([3]; 12 mg/kg, 21 days after administration): significantly reduce the blood pressure | neurobehavior of salt-sensitive rats ([3]; BZP 3, 12 and 24 mg/kg, dose-dependent): improve the neurobehavior | NOGO-A expression ([4]; ischemic penumbra area): down-regulating | expression of SYN, GAP-43, BDNF and GFAP ([4]; ischemic penumbra area): increasing | nerve repair and recovery of motor function after cerebral ischemic injury ([4]; rat, in vivo): promote nerve repair | inhibition of ADP-induced platelet aggregation ([5]; ADP-induced): no inhibitory effects | IC50 ([5]; Platelet, AA-induced): 12 µM | inhibition of thrombin-induced platelet aggregation ([5]; thrombin-induced): no inhibitory effects | Cmax and AUC0-t, first compared with last administration ([6]; 7 consecutive days, 2.0 mg/kg, dogs): no statistically significant differences | accumulation in the body ([6]; intravenous, 7 consecutive days, 2.0 mg/kg, dogs): did not accumulate | difference between male and female dogs ([6]; single intravenous injection): no significant difference | Cmax and AUC0-t versus dose ([6]; single intravenous injection of BZP 1.0-4.0 mg/kg, dogs): basically conformed to linear kinetics | tissue distribution of BZP ([7]; at 110 minutes of administration): the fat content was the highest | detectability in the brain ([7]; eliminated quickly): cannot be detected after 50 minutes | concentration in the brain ([7]; in vivo): relatively low | conversion of BZP in vivo ([7]; not via NADPH coenzyme/CYP450): rapidly converted to BNBP | ability of tissues to transform BZP in vitro ([7]; spleen has the lowest ability): liver tissue has the strongest ability to transform BZP in vitro | tissue distribution of BZP ([7]; within 50 minutes of administration): higher in the lung tissue | number of positive cells, comparison with NBP-K and Br-NBP groups [8, 19]: better than 9.6 mg/kg of NBP-K group and 10.5 mg/kg of Br-NBP group | optical density value, comparison with NBP-K and Br-NBP groups [8, 19]: better than 9.6 mg/kg of NBP-K group and 10.5 mg/kg of Br-NBP group | expression of TNF-α, IL-6, IL-1β, NF-κB, COX-2, ICAM-1, immunohistochemical staining optical density value [8, 20]: significantly reduced | expressions of TNF-α, IL-6, IL-1β, NF-κB, COX-2, ICAM-1, number of immunohistochemical positive cells [8, 20]: significantly reduced | accumulation after multiple intravenous infusions ([9]; 7 days): no obvious drug accumulation; also recorded: no significant drug accumulation; also recorded: There was no significant | metabolites other than BNBP ([9]; BZP1702): No significant metabolites other than BNBP were found | accumulation ratio ([9]; after 7 days of continuous administration): 1.10-1.18 | half-life ([9]; intravenous): 5.34 to 5.57 h | half-life ([9]; iv): 11.1 to 13.3 h | difference in AUC0-t and Cmax between subjects of different genders ([9]; multiple doses): not significantly different and 7 days. There was no | mean ratio range between genders, AUC0-t ([9]; multiple doses): 0.797-1.01 | mean ratio range between genders, Cmax ([9]; multiple doses): 0.799-1.01 | day on which blood drug level reached steady state ([9]; multiple intravenous infusions of BZP, 50-200 mg): steady state on the 5th day; also recorded: steady state on the fifth | relationship of AUC0-t and Cmax in plasma with the dose ([9]; multiple intravenous infusions, 50-200 mg, first and steady-state administration): linearly related to the dose; also recorded: linear relationship with the dose | clinical signs during and after administration ([10]; 50 mg/kg, some dogs): tremors in the head and limbs, loose stools, vomiting, and salivation | clinical signs during each administration ([10]; 150 mg/kg intravenous once a day, 13 weeks, dogs): vomited white foam-like substances, salivation, head and whole body tremors, spasms/convulsions | anemia and liver findings ([10]; 150 mg/kg, dogs): mild anemia and liver damage | NOAEL at 13 weeks ([10]; dog, in vivo, long-term toxicity test, dogs, read-out: NOAEL dose): 50 mg/kg | recovery of symptoms ([10]; dogs, after drug withdrawal): all recovered after 28 days of drug withdrawal | platelet aggregation inhibition rate, ADP ([11]; first (low) dose group): 23.89% | platelet aggregation inhibition rate, arachidonic acid ([11]; first (low) dose group): 42.08% | platelet aggregation inhibition rate, thrombin ([11]; first (low) dose group): 23.87% | platelet aggregation inhibition rate, ADP ([11]; second (medium) dose group): 34.42% | platelet aggregation inhibition rate, arachidonic acid ([11]; second (medium) dose group): 60.32% | platelet aggregation inhibition rate, thrombin ([11]; second (medium) dose group): 37.75% | platelet aggregation inhibition rate, ADP ([11]; third (high) dose group): 44.14% | platelet aggregation inhibition rate, arachidonic acid ([11]; third (high) dose group): 72.20% | platelet aggregation inhibition rate, thrombin ([11]; third (high) dose group): 55.47% | time to recovery of blood pressure changes after administration ([12]; 50 mg/kg intravenous): ≤ 0.5 h | systolic blood pressure, diastolic blood pressure and mean arterial pressure ([12]; 0.25 hours after intravenous injection of 50 mg/kg): small transient increase | effect on the II-lead ECG ([12]; dose range of 5-50 mg): no effect | experimental thrombosis compared with the Br-NBP group ([13]; high dose group (P<0.01)): weaker than that in the Br-NBP group | experimental thrombosis compared with the ASA group with the same molar dose ([13]; high dose group (P>0.05)): no statistical difference | results of experimental thrombosis ([13]; high dose group): 0.13±0.03 | results of experimental thrombosis ([13]; low dose group): 0.23±0.04 | results of experimental thrombosis ([13]; medium dose group): 0.18±0.02 | recovery of toxic reactions in the nervous system and respiratory system ([14]; dogs): recovered within 15 minutes to 4 hours | recovery of toxic reactions in the nervous system and respiratory system ([14]; rats): recovered within 15 minutes to 4 hours | MTD ([14]; dog, dogs): 300 mg/kg | MTD ([14]; rat, rats): 200 mg/kg | effect on the respiratory system [15]: no effect | time to recovery of neurobehavioral changes after drug withdrawal ([16]; 50 and 100 mg/kg): ≤ 4 h | dose that caused neurological effects in rats ([16]; single intravenous injection): 50 mg/kg | body temperature ([16]; single intravenous injection 50 mg/kg and 100 mg/kg): decrease in body temperature | neurobehavioral signs at high dose ([16]; single intravenous injection 100 mg/kg): decreased activity, erect hair, decreased frequency of defecation and urination and loss of pupillary stimulation reflex | mortality and behavioral score within 24 hours ([17]; 12 mg/kg): reduce the mortality and behavioral score | mortalities within 24 hours ([17]; 3 and 12 mg/kg): lower than those in the model group and the NBP-K group | cell survival pathways (PI3K, P-Akt) ([17]; compared with the model group (P<0.01)): significantly increased | behavioral scores [17, 21]: significantly lower | expression of inflammatory circuit factors, apoptosis pathway factors, neuron necrosis rate and apoptosis rate in hippocampal CA1 region [17, 21]: significantly decreased

From patent US20230398087A1, “APPLICATION OF BZP IN TREATMENT OF ISCHEMIC CARDIOVASCULAR AND CEREBRAL VASCULAR DISEASES” (priority 2020, published 2023)
